Common to all, as to type: in vivo, female turkeys
The subject of test [1] is H. meleagridis. Put plainly: Controlling Histomoniasis in turkeys (QSC HD 1500 ppm). Particulars: MED 30 mg/kg bird/day. As for the experimental part: A total of 160 3-week-old female turkeys were randomly grouped into 10 pens. The groups were: control (−) CON, control (+) POS, metronidazole (MED), two groups treated with QSC at 1500 ppm (HD greater dose than in the previous trial). The CON group was not challenged or treated with any product; POS control was only inoculated with a H. meleagridis suspension, and the MED group was inoculated with the same dose and treated with metronidazole, 30 mg/kg bird/day. […] Table 1208 summarizes bird distribution according to treatments, as well as the appropriate product dosage.
The treatments were started as of 3 weeks of age. The H. meleagridis challenge suspension was 100000 cell/mL, approximately, and was inoculated at 4 weeks of age, via cloacal route. Female turkey mortality rate was recorded throughout the trial, and lesions were measured by using a previously standardized lesion scoring at 8 weeks of age.

Test [2] concerns H. meleagridis. Put plainly: Controlling Histomoniasis in turkeys (QSC and QHS). The conditions noted are these: MED 30 mg/kg bird/day; QHS 1500 ppm; QSC 750 ppm. As for the experimental part:
A total of 160 3-week-old female turkeys were randomly grouped into 10 pens. The groups were: control (−) CON, control (+) POS, MED (metronidazole), and two different treatments, (QSC and QHS's active content under treatment) is set). Control group (−) was not challenged or treated with any product, control (+) was only inoculated with a H. meleagridis suspension, and the MED group was inoculated with the same dose and treated with metronidazole, 30 mg/kg bird/day. […] Table 22 summarizes bird distribution according to treatments, as well as the appropriate product dosage.
The treatments were started as of 3 weeks of age. The H. meleagridis challenge suspension contained 100000 cells/mL, approximately, and was inoculated as of 4 weeks of age, cloacal route. The female turkey mortality rate was recorded throughout the trial, and lesions were measured by using a previously standardized lesion scoring at 8 weeks of age.

Test [3] has as its system H. meleagridis. Put plainly: Controlling Histomoniasis in turkeys (BQ batches 3250 ppm). Particulars: MED 30 mg/kg bird/day; BQ-1, BQ-2, BQ-3 3250 ppm. On the procedure: A total of 200 3-week-old young female turkeys were randomly grouped in 10 pens. The groups were: control (−) CON, control (+) POS, MED (metronidazole), 3 groups treated with BQ. BQ is a quillay wood-based additive where three different batches were evaluated with (2.5-5.5%) saponins.
The treatments were started as of 3 weeks of age. The H. meleagridis challenge suspension contained 100000 cell/ml, approximately, and was inoculated at 4 weeks of age, via cloacal route. The female turkey mortality rate was recorded throughout the trial, and lesions were measured by using a previously standardized lesion scoring at 8 weeks of age.

Test [4] relates to H. meleagridis. As to the kind of experiment: Controlling Histomoniasis in turkeys (QSC, QS15 750 ppm). The conditions noted are these: MED 30 mg/kg bird/day, QSC 750 ppm. As for the experimental part:
A total of 200 3-week-old female turkeys were randomly grouped into 9 pens. The groups were: control (−) (CON), control (+) (POS), metronidazole (MED), two 750 PPM QSC-treated groups, and two groups treated with 750 PPM QS15-treated groups. The CON group was not challenged or treated with any product, POS was only inoculated a H. meleagridis suspension, and the MED group was inoculated with the same dose and treated with 30 mg/kg metronidazole per bird/day. The CON group was comprised of 16 young female turkeys, while the remainder comprised 23 each. Table 17 summarizes the bird distribution according to treatment, as well as the appropriate product dosage.
The treatments were started at 3 weeks of age. The H. meleagridis challenge suspension had approximately 100000 cells/mL and was inoculated at 4 weeks of […] age. Weight was measured at 3, 6 and 8 weeks of age. Feed intake was estimated at 6 and 8 weeks of age. The young female turkey mortality rate was recorded throughout the trial, and lesions were measured by using a previously standardized lesion scoring at 8 weeks of age.

“And” between values parts separate entries of the source, which are not always exact repeats. Equal values may be shown once.

Consider `Cc1ncc([N+](=O)[O-])n1CCO` [MED, metronidazole], for which the Cecum lesion score is recorded as 1.3b in the test on H. meleagridis [1], 1.5c in the test with H. meleagridis [2], 0.85a in the test with H. meleagridis [3] and 0.2a with H. meleagridis [4]. The Liver lesion score with H. meleagridis [1] was found to be 0.28ab; in the test on H. meleagridis [2], 0.3a; in the test on H. meleagridis [3], 0.5ab; with H. meleagridis [4], 0.0a. For the same molecule, the “Mortality (%)” value with H. meleagridis [1] was 10% and 10a %; in the test on H. meleagridis [2], 25% and 25.00ab %; in the test with H. meleagridis [3] it was 10% and 10.00ab %; in the test on H. meleagridis [4], 2% and 2a %.
